Test results taken from patent US20260294767A1, “USE OF ERGOTHIONEINE IN PROMOTING COLLAGEN GENERATION” (BLOOMAGE BIOTECHNOLOGY CORPORATION LIMITED, priority 2022, published 2026).

Key:
[1] = test system: type III collagen generation in primary human dermal fibroblasts; assay: Type III collagen generation in primary human dermal fibroblasts, ELISA of culture supernatant; format: cell-based; details: for Relative expression level of type III collagen: N=3, vs blank control 100.00%
Protocol: A sample solution was prepared by dissolving ergothioneine solid powder in a basic culture medium, and the concentration was adjusted to 0.001 wt %.
When the in vitro cultured fibroblasts reached 80-90% confluence, they were digested with trypsin and inoculated into 96-well plates. After 48 hours of monolayer culture in a 96-well plate, cells were treated with the ergothioneine sample prepared in step (1) (N=3), with a treatment group comprising 100 ng/mL IGF-1 was set as the positive control. After 48 hours, the cell culture supernatant was taken for ELISA assay of type III collagen, and the type III collagen content of the measured sample group was statistically compared with that of the blank control group to evaluate the effect of ergothioneine on the generation of type III collagen.
All results were presented as Mean±SD, and differences in measured data were compared using an unpaired t-test. P-value<0.05 is considered statistically significant.

[2] = test system: type III collagen generation in human fibroblast (HFF); assay: Type III collagen content by human collagen III ELISA in human fibroblast (HFF); format: cell-based; details: 0.2 wt % ergothioneine, 72 hours
Protocol: Human fibroblast (HFF) in logarithmic growth phase were collected, discarding the culture medium, washing them once with PBS, adding 0.25 wt % trypsin, incubating in a cell culture incubator for 1 minute, and then terminating digestion of the culture medium. The culture medium was centrifuged at 1000 rpm for 3 minutes, and the cells were resuspended in complete DMEM medium and counted. Human fibroblast (HFF) were inoculated into 12-well plates at a density of 3×10^5 cells/ml, with 1 ml/well. After incubation in an incubator at 37° C. and 5% CO2 for 24 hours, the culture medium was removed and the cells were washed with PBS.
The cells washed in step 1 were divided into two groups, namely a blank control group and an ergothioneine group, with 3 replicates in each group. Among them, the blank control group: 1 ml of serum-free culture medium; the ergothioneine group: 1 ml of serum-free culture medium containing 0.2 wt % ergothioneine.
After thoroughly mixing, cells in the above groups were placed in an incubator and cultured for another 72 hours.
Phase contrast microscopy was used to observe cell growth, morphology, and integrity of the cell monolayer, and changes in cell morphology and growth were recorded. The content of type III collagen was determined by using the human collagen III ELISA kit.
Type III collagen promotion rate was calculated as: […]

Compound | effect on generation of type III collagen (in words) ([1]; ergothioneine 0.001%, 48 hours, P<0.05) | Relative expression level of type III collagen ([1]; ergothioneine 0.001 wt %, 48 hours, SD 0.07, P 0.0360) | effect on generation of type III collagen (in words) ([2]; compared with blank control) | activity at 0.2 wt % ([2]; Homo sapiens, Fibroblast, serum-free medium, 3 replicates, vs blank control 100.0 ± 12.3, ** P < 0.01, read-out: Relative expression level of type III collagen (%)) | activation at 0.2 wt % ([2]; Homo sapiens, Fibroblast, serum-free medium, 3 replicates, vs blank control, read-out: Type III collagen promotion rate (%)) | effect on synthesis of type III collagen in fibroblasts (in words) ([1]; 100 ng/mL IGF-1, 48 hours, P<0.05) | Relative expression level of type III collagen ([1]; positive control 100 ng/mL IGF-1, 48 hours, SD 0.05, P 0.0103)
C[N+](C)(C)[C@@H](Cc1c[nH]c(=S)[nH]1)C(=O)[O-] [Ergothioneine, ergothioneine] | significantly promotes the generation of type III collagen | 117.8% | can significantly promote the generation of type III collagen | 148 ± 20.1% | 48.3 ± 20.1% | – | –
IGF-1: 100 ng/mL IGF-1 was set as the positive control | – | – | – | – | – | significantly promotes the synthesis of type III collagen in fibroblasts | 129.3%
